Laboratory results from patent US6228861A, “Dihydropyrimidines and uses thereof” (Synaptic Pharmaceutical Corporation, priority 1998, dated 2001).
Read-outs that look alike come from different tables or passages of the source.

Columns and labels:
[1] = literature, BPH patients; cited from earlier work
[2] = cited from earlier work
[3] = molecular target: T1, α1D Human Adrenergic Receptor (Homo sapiens, UniProt P25100); test: [3H]prazosin radioligand binding, cloned human α1D receptor; settings: LM(tk-) membranes, [3H]prazosin 0.5 nM, 37° C., 20 min
T1 construct: The entire coding region of α1D (1719 bp); expressed in transfected cells; membranes
T1 sequence (P25100 1-572): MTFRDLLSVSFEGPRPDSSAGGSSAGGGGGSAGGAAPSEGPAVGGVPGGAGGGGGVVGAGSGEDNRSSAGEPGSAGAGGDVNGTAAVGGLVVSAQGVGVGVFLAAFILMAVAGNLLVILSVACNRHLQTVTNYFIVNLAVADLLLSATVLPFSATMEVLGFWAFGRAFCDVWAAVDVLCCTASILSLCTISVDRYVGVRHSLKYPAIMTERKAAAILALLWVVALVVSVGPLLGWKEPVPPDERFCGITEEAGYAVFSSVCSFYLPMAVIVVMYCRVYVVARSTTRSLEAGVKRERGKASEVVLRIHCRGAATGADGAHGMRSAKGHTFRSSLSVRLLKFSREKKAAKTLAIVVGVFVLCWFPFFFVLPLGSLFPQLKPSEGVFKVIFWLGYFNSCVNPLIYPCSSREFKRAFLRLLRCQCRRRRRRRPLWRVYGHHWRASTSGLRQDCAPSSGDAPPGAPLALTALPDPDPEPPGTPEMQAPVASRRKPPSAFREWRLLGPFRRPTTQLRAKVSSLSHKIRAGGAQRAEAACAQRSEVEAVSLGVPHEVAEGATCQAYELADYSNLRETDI
Experimental: (§1) Binding affinities were measured for selected compounds of the invention at six cloned human alpha-1 and alpha-2 receptor subtypes, as well as at the L-type calcium channel. The protocols for these experiments are given below.
(§2) The activity of compounds at the different human receptors was determined in vitro using cultured cell lines that selectively express the receptor of interest. These cell lines were prepared by transfecting the cloned cDNA or cloned genomic DNA or constructs containing both genomic DNA and cDNA encoding the human α-adrenergic receptors as follows:
The entire coding region of α1D (1719 bp), including 150 base pairs of 5' untranslated sequence t5' UT) and 300 bp of 3' untranslated sequence (3' UT), was cloned into the BamHI and ClaI sites of the polylinker-modified eukaryotic expression vector pCEXV-3, called EXJ.HR. […]
(§3) Transfected cells from culture flasks were scraped into 5 ml of 5 mM Tris-HCl, 5 mM EDTA, pH 7.5, and lysed by sonication. […] Nonspecific binding was determined in the presence of 10 μM phentolamine. […] Inhibition experiments, routinely consisting of 7 concentrations of the tested compounds, were analyzed using a non-linear regression curve-fitting computer program to obtain Ki values.

[4] = molecular target: T2, α1B Human Adrenergic Receptor (Homo sapiens, UniProt P35368); test: [3H]prazosin radioligand binding, cloned human α1B receptor; settings: LM(tk-) membranes, [3H]prazosin 0.5 nM, 37° C., 20 min
T2 construct: The entire coding region of α1B (1563 bp); expressed in transfected cells; membranes
T2 sequence (P35368 1-520): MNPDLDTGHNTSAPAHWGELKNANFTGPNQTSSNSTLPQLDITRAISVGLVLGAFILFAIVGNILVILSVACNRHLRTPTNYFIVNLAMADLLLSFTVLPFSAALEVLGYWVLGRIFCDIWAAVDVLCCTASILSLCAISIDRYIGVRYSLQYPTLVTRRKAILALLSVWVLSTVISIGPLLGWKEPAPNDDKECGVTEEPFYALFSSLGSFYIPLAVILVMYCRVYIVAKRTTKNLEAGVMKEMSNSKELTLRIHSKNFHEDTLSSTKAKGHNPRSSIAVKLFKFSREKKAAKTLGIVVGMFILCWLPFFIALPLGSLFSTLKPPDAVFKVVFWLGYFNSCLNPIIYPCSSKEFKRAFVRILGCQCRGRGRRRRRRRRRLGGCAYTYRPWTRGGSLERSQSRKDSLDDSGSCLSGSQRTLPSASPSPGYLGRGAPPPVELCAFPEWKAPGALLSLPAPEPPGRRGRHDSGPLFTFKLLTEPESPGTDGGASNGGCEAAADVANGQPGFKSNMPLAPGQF
Experimental: as §1, §2
(§4) The construct involved the ligation of partial overlapping human lymphocyte genomic and hippocampal cDNA clones: 5' sequence were contained on a 1.2 kb SmaI-XhoI genomic fragment (the vector-derived -BamHI site was used for subcloning instead of the internal insert-derived SmaI site) and 3' sequences were contained on an 1.3 kb XhoI-ClaI cDNA fragment (the ClaI site was from the vector polylinker). […]
as §3

[5] = molecular target: T3, α1A Human Adrenergic Receptor (Homo sapiens, UniProt P35348); test: [3H]prazosin radioligand binding, cloned human α1A receptor; settings: LM(tk-) membranes, [3H]prazosin 0.5 nM, 37° C., 20 min
T3 construct: The entire coding region of α1A (1401 bp); expressed in transfected cells; membranes
T3 sequence (P35348 1-466): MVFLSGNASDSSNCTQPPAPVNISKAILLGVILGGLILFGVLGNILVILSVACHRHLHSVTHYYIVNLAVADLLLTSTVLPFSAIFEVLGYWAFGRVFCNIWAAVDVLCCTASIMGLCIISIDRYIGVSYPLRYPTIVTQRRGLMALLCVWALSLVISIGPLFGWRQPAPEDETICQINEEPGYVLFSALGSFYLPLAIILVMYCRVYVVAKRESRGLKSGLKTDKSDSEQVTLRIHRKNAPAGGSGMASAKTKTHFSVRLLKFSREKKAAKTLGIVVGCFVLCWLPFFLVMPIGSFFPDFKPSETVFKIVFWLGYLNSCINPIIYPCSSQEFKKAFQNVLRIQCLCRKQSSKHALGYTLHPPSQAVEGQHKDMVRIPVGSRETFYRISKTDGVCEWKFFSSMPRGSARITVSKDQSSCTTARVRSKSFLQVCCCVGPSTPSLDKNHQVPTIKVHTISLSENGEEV
Experimental: as §1, §2, §4
Transfected cells from culture flasks were scraped into 5 ml of 5 mM Tris-HCl, 5 mM EDTA, pH 7.5, and lysed by sonication. […] Nonspecific binding was determined in the presence of 10 μM phentolamine. […]

SMILES	usefulness in BPH [1]	side effects ([2]; literature)	other results
COc1cc2nc(N3CCN(C(=O)c4ccco4)CC3)nc(N)c2cc1OC [prazosin]	useful for treating BPH	–	side effects ([2]; in vivo): untoward side effects
CC(COc1ccccc1)N(CCCl)Cc1ccccc1 (stereo not shown) [phenoxybenzamine]	useful in relieving the symptoms of BPH	significant side effects such as dizziness and asthenia	–
COCC1=C(C(C)=O)C(c2cc(F)c(F)c(F)c2)N(C(=O)NCCN[C@H]2CC[C@](C#N)(c3ccccc3)CC2)C(=O)N1.Cl (stereo partly drawn) [Example 2, cis-6-(3,4,5-Trifluorophenyl)-1-{N-[2-(4-cyano-4 phenyl-cyclohexylamino)ethyl]}-carboxamido-5-acetyl-4-methoxymethyl-2-oxo-1,2,3,6 - tetrahydropyrimidine hydrochloride]	–	–	hα1D pKi [3]: 7.05; hα1B pKi [4]: 7.76; hα1A pKi [5]: 9.51
COc1cc2nc(N3CCN(C(=O)C4CCCO4)CC3)nc(N)c2cc1OC (stereo not shown) [terazosin]	useful for treating BPH	untoward side effects	–
Clc1cccc(Cl)c1N=C1NCCN1 [clonidine]	–	dry mouth and sedation	–
